Experimental findings from patent US12455279B2, “Personalized immunotherapy for rejuvenating activating and strengthening exhausted and dysfunctional T cells, reducing PD-1, and improving immune function” (priority 2018, dated 2025) are described below.

The test system of test [1] is PD-1 expressing smaller non-proliferating CD3+ normal human T cells. As to the kind of experiment: PD-1 expression on smaller non-proliferating T cells (FSC/SSC gating), 1 Hr treatment. In kind it is cell-based. As to conditions: 10−8M; for % reduction in % of smaller T cells expressing PD-1: vs untreated. On the procedure:
(§1) Peripheral blood lymphocytes (PBLs) were separated from normal human leukocytes of healthy donors by Ficol separation and CD3 positive T cells were separated by anti-CD3 antibody-coupled magnetic beads. The CD3+ T cells were cultured in RPMI 1640 medium supplemented with 10% heat inactivated fetal calf serum (FCS), 1% L-Glutamine, 1% sodium pyruvate, 1% non-essential amino acids, and 1% antibiotics. The cells were usually maintained for, for on average 24 hours after their separation before various molecules were added and their effects on the T cells were measured. […] It was therefore tested if neurotransmitters, neuropeptides, and/or modulators of voltage-gated ion channels can reduce PD-1 on the cell surface of T cells. Such a reduction would allow the T cells to escape the tumor-induced T cell suppression, and the activated T cells could then attach the cancer cells. As such, the expression of PD-1 on the surface of these treated and untreated T cells was monitored. […] Shorter in vitro incubation times are frequently preferable when cells are going to subsequently be returned to a subject, as they end to decrease the risk of an adverse reaction.
(§2) CD3 positive T cells of patients are a heterogenous mix of different types of T cells. […] Using this FCS and SSC analysis, T cells can be distinguished and separated by size into large proliferating T cells and smaller non-proliferating T cells.

Test [2] concerns CD3+ T cells of liver cancer patients. Nature of the test: Proliferation / big proliferating T cells / CD25 of CD3+ T cells of liver cancer patients. In kind it is cell-based, human. Also on record: % big/activated/proliferating T cells: concentration or dose not given beside the values. As to conditions: for % big/activated/proliferating T cells / Fold increase (big/activated/proliferating T cells): T cells of liver cancer patient one; for % big/activated/proliferating T cells: 60 hours culture; for Fold increase (big/activated/proliferating T cells): vs untreated; for number of T cells present in culture (FIG. 1) / increase in the number of big, proliferating CD3 positive cells (ranking in words): patient one; for number of T cells present in culture (FIG. 1): 60 hours after administration; for increase in the number of big, proliferating CD3 positive cells (ranking in words): flow cytometer. On the procedure:
Blood was drawn from two patients suffering from liver cancer, patient one and patient two who both suffer from hepatocellular carcinoma. 15 mLs of blood yielded roughly 2.5×10^7 peripheral blood leucocytes, from which approximately […] positive T cells were isolated. The cells were cultured as described above, and the effects of various molecules and their combinations on those T cells were examined.
Cell proliferation was monitored in culture for 60 hours after administration of the molecule/s (FIG. 1).
Background: Flow cytometry measures light scatter and fluorescence of single cells or particles in a stream.

Test [3] relates to PD-1 expressing large proliferating CD3+ normal human T cells. Nature of the test: PD-1 expression on large proliferating T cells (FSC/SSC gating), 1 Hr treatment. In kind it is cell-based. As to conditions: 10^−8M; for % reduction in % of large T cells expressing PD-1: vs untreated. As for the experimental part: as §1, §2
Test [4] has as its system PD-1 expressing CD3+ normal human T cells. Nature of the test: PD-1 surface expression on CD3+ T cells of healthy donors after treatment (1, 18, 24 Hr). The format is cell-based. The note with it: for % reduction in % of T cells expressing PD-1: vs untreated. On the procedure:
as §1

“Also recorded” adds a separate entry of the source.

As to `NCCc1ccc(O)c(O)c1` [Dopamine], in test [1], the “% of smaller T cells expressing PD-1” value is recorded as 40.4% and the “% reduction in % of smaller T cells expressing PD-1” value was determined as 8.0%. In test [2], the “% big/activated/proliferating T cells” value is 14%, the “Fold increase (big/activated/proliferating T cells)” value is recorded as 3-fold and the “number of T cells present in culture (FIG. 1)” value (“number of T cells present” for short) was “increased the number of T cells present in culture; also recorded: most effective”. Moreover, in test [3], the “% of large T cells expressing PD-1” value amounted to 19.1% and the “% reduction in % of large T cells expressing PD-1” value amounted to 11.2%. In test [4] (1 Hr treatment, 10^−8M), the “% of T cells expressing PD-1” value is recorded as 30.3% and the “% reduction in % of T cells expressing PD-1” value was determined as 17%. In addition, in test [4] (18 Hr treatment, 10^−7M), the “% of T cells expressing PD-1” value is reported as 24.90% and the “% reduction in % of T cells expressing PD-1” value was 28.40%. Further, in test [4] (24 Hr treatment, 10^−7M), the “% of T cells expressing PD-1” value stood at 10% and the “% reduction in % of T cells expressing PD-1” value worked out at 51.05%. For the same molecule, in test [4] (24 Hr treatment, 10^−8M), the “% of T cells expressing PD-1” value amounted to 22.4% and the “% reduction in % of T cells expressing PD-1” value was −9.64%. In addition, the “effect on PD-1 expressing T cells” value in test [4] (incubated for 24 hours) is listed as “did not have a positive effect”.
In the case of `N[C@@H](CCC(=O)O)C(=O)O` [Glutamate], in test [1], the “% of smaller T cells expressing PD-1” value was found to be 32.8% and the “% reduction in % of smaller T cells expressing PD-1” value is reported as 25.3%. Moreover, in test [2], the “% big/activated/proliferating T cells” value was found to be 24.80%; the “Fold increase (big/activated/proliferating T cells)” value is 5.4-fold; the “number of T cells present” value is “increased the number of T cells present in culture; also recorded: most effective”; the “increase in the number of big, proliferating CD3 positive cells (ranking in words)” value is listed as “most effective”. In test [3], the “% of large T cells expressing PD-1” value was determined as 13.0% and the “% reduction in % of large T cells expressing PD-1” value worked out at 39.5%. For the same molecule, in test [4] (1 Hr treatment, 10^−8M), the “% of T cells expressing PD-1” value was 24.65% and the “% reduction in % of T cells expressing PD-1” value is recorded as 33%. In test [4] (18 Hr treatment, 10^−7M), the “% of T cells expressing PD-1” value was determined as 23.70% and the “% reduction in % of T cells expressing PD-1” value turned out to be 31.7%. For the same molecule, in test [4] (24 Hr treatment, 10^−7M), the “% of T cells expressing PD-1” value amounted to 15.8% and the “% reduction in % of T cells expressing PD-1” value was found to be 22.64%. Further, in test [4] (24 Hr treatment, 10^−8M), the “% of T cells expressing PD-1” value came to 16.3% and the “% reduction in % of T cells expressing PD-1” value is given as 20.2%.
With CGRP, in test [1], the “% of smaller T cells expressing PD-1” value is reported as 35.9% and the “% reduction in % of smaller T cells expressing PD-1” value turned out to be 18.2%. In test [2], the “% big/activated/proliferating T cells” value was found to be 19.20%, the “Fold increase (big/activated/proliferating T cells)” value was 4.3-fold and the “number of T cells present” value is recorded as “increased the number of T cells present in culture”. In test [3], the “% of large T cells expressing PD-1” value worked out at 16.5% and the “% reduction in % of large T cells expressing PD-1” value was determined as 23.3%.
Neuropeptide Y: neuropeptide: in test [2], the “% big/activated/proliferating T cells” value is reported as 16.40%, the “Fold increase (big/activated/proliferating T cells)” value is 3.6-fold and the “number of T cells present” value was “increased the number of T cells present in culture”.

B1: GnRH-II: neuropeptide (peptide, UniProt O43555 24-120, looked up)
Progonadoliberin-2: QHWSHGWYPGGKRALSSAQDPQNALRPPGRALDTAAGSPVQTAHGLPSDALAPLDDSMPWEGRTTAQWSLHRKRHLARTLLTAAREPRPAPPSSNKV
modifications: Progonadoliberin-2
notes: neuropeptide
Consider B1, for which the “surface expression of CD25 (FIG. 2D)” value in test [2] (T cells of patient one) was “increased the surface expression of CD25”. Further, in test [2], the “number of T cells present” value is “increased the number of T cells present in culture” and the “increase in the number of big, proliferating CD3 positive cells (ranking in words)” value is reported as “most effective”. Also, in test [3], the “% of large T cells expressing PD-1” value is 9.5% and the “% reduction in % of large T cells expressing PD-1” value stood at 55.8%. For the same molecule, in test [4] (1 Hr treatment, 10^−8M), the “% of T cells expressing PD-1” value came out at 31.6% and the “% reduction in % of T cells expressing PD-1” value is recorded as 14%.
